Test results: paper PMC11699025 (Natural Products and Bioprospecting, 2025)
“And” between values parts separate entries of the source, which are not always exact repeats. Identical values can stand only once.

Key:
[1] = molecular target: T1, MERS-CoV Mpro (Middle East respiratory syndrome-related coronavirus, UniProt K9N7C7); format: binding
[2] = molecular target: T1, MERS-CoV Mpro; assay: biochemical; format: binding
[3] = molecular target: SARS-CoV-2 PLpro WT (Severe acute respiratory syndrome coronavirus 2, UniProt P0DTD1); format: binding
[4] = molecular target: T2, BtCoV Rp3 Mpro (Bat coronavirus Rp3/2004, UniProt P0C6W6); assay: biochemical; format: binding
[5] = molecular target: T3, MERS-CoV PLpro (Middle East respiratory syndrome-related coronavirus, UniProt K9N7C7); format: binding
[6] = test system: RD cells; conditions: concentrations up to 100 µM
[7] = molecular target: T2, BtCoV Rp3 Mpro; assay: biochemical
[8] = in vitro; conditions: human
[9] = molecular target: T4, BtCoV Rp3 PLpro (Bat coronavirus Rp3/2004, UniProt P0C6W6); format: binding
[10] = molecular target: T5, SARS-CoV PLpro (Severe acute respiratory syndrome coronavirus, UniProt P0C6X7); assay: biochemical; format: binding
[11] = molecular target: T5, SARS-CoV PLpro; assay: biochemical
[12] = molecular target: T3, MERS-CoV PLpro; assay: biochemical; format: binding
[13] = molecular target: T6, SARS-CoV Mpro (Severe acute respiratory syndrome coronavirus, UniProt P0C6X7); format: binding
[14] = test system: HCoV-OC43; assay: microbe, parasite or virus in culture; format: cell-based, human coronavirus OC43; conditions: for EC50: Betacoronavirus 1, OC43, RD, 48 h
[15] = molecular target: T6, SARS-CoV Mpro; assay: biochemical; format: binding
[16] = molecular target: T4, BtCoV Rp3 PLpro; assay: biochemical; format: binding
[17] = molecular target: T7, SARS-CoV-2 Mpro (Severe acute respiratory syndrome coronavirus 2, UniProt P0DTD1); assay: biochemical
[18] = molecular target: T8, SARS-CoV-2 PLpro (Severe acute respiratory syndrome coronavirus 2, UniProt P0DTD1); assay: biochemical
[19] = molecular target: T7, SARS-CoV-2 Mpro; assay: biochemical; format: binding; conditions: pH 7.4, read-out: ka
[20] = molecular target: T8, SARS-CoV-2 PLpro; assay: biochemical; format: binding; conditions: pH 7.4, read-out: ka

T1 sequence (K9N7C7 3248-3553 limits assumed): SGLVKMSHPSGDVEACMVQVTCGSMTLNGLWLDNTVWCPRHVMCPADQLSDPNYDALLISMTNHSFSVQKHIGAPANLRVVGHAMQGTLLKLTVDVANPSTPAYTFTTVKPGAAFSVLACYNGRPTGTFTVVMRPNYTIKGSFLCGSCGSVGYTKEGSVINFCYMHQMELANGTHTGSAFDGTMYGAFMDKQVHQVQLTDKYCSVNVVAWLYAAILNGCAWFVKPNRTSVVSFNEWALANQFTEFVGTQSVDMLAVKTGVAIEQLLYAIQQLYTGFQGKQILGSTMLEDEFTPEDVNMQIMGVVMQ
T3 sequence (K9N7C7 1552-1823 limits assumed): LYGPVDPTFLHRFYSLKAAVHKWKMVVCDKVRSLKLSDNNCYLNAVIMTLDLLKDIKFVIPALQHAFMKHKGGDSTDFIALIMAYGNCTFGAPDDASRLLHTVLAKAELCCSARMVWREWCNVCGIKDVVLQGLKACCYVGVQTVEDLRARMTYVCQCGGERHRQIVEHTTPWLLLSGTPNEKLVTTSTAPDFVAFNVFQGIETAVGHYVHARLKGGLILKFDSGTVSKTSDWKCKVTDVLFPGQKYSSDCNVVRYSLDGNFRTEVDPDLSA

SMILES: Cc1cc(O)c(O)c(Oc2cc(C)cc(O)c2Oc2cc(C)cc(O)c2O)c1 [Sydowiol B, sydowiol B]
- Tm value [1]: 47.47 ± 0.33 (1.37) ℃ and 47.33 ± 0.00 (1.23) ℃ and 47.27 ± 0.16 (1.17) ℃
- Kd [2]: 9.35 µM
- Tm value [3]: 51.24 ± 0.36 (5.29) ℃ and 50.31 ± 0.06 (4.36) ℃
- Kd [4]: 1930 nM
- Tm value [5]: 57.67 ± 0.32 (2.78) ℃ and 57.20 ± 0.13 (2.31) ℃ and 56.95 ± 0.13 (2.06) ℃
- influence on cell viability [6]: no influence
- IC50 [7]: 1160 ± 1230 nM
- CC50 at 48 h [8]: > 200 µM
- Tm value [9]: 53.59 ± 0.20 (4.00) ℃ and 53.87 ± 0.13 (4.28) ℃ and 52.79 ± 0.27 (3.20) ℃
- △Tm [9]: 53.59 ± 0.20 (4.00) ℃ and 53.87 ± 0.13 (4.28) ℃ and 52.79 ± 0.27 (3.20) ℃
- Kd [10]: 14.2 µM
- IC50 [11]: 2420 ± 1100 nM
- Kd [12]: 450 nM
- Tm value [13]: 57.17 ± 0.19 (1.25) ℃ and 56.82 ± 0.25 (0.90) ℃ and 56.37 ± 0.28 (0.45) ℃
- EC50 [14]: 690 ± 100 nM
- Kd [15]: 2540 nM
- Kd [16]: 11.8 µM

SMILES: Cc1cc(O)c(O)c(Oc2cc(C)cc(O)c2O)c1 [Violaceol I, violaceol I]
- kon ([2]; pH 7.4, read-out: ka): 454 M⁻¹ s⁻¹
- kon ([4]; pH 7.4, read-out: ka): 532 M⁻¹ s⁻¹
- influence on cell viability [6]: no influence
- IC50 [17]: 8.27 ± 1.15 µM
- CC50 at 48 h [8]: > 100 µM
- IC50 [18]: 42.3 ± 1.02 µM
- kon [19]: 969 M⁻¹ s⁻¹
- kon ([10]; pH 7.4, read-out: ka): 516 M⁻¹ s⁻¹
- kon [20]: 494 M⁻¹ s⁻¹
- kon ([12]; pH 7.4, read-out: ka): 479 M⁻¹ s⁻¹
- Selection Index (SI) [14]: >42.02
- EC50 [14]: 2380 ± 20 nM
- kon ([15]; pH 7.4, read-out: ka): 547 M⁻¹ s⁻¹
- kon ([16]; pH 7.4, read-out: ka): 551 M⁻¹ s⁻¹
